Columns and labels:
T47D, TYS and TDG cells = test: MTS proliferation assay (4 days), T47D, TYS and TDG; format: cell-based, human
Procedure: FIG. 30 compares the ability of BHPI and test compounds to inhibit proliferation of T47D, TYS and TDG cells. T47D cells were in medium containing 10 FBS (which contains estrogen), TYS-4 and TDG-1 cells were in medium containing 10% cd-FBS (estrogen depleted). Cells are plated at 2,000 cells/well in 96 well plates. After 24 hours in medium containing FBS or charcoal-dextran treated FBS (depleted of endogenous estrogens), the indicated concentration of each compound (in DMSO at 1/1000th of the volume of medium) was added. After 2 days the medium was changed, and the compounds were added again. After 2 additional days (4 days total) MTS assays are used to evaluate cell proliferation. (n=6 ±S.E.M.).

TDG cells = test: Trypan Blue exclusion cell death assay, TDG / TDG-Luc; format: cell-based, human; settings: 24 hours
From the text: (§1) TRYPAN BLUE: For decades, viable cells have been measured by their ability to exclude the dye Trypan Blue. […] Dead cells, which have lost membrane integrity, take up the dye and are blue. Thus, the percentage of dead cells is the percentage of cells that are Trypan Blue positive out of the total cell population. Quantitative assessment of Trypan Blue uptake uses a cell counter from Fisher. Since the assay is instrument based, there is no observer bias in determining the percentage of Trypan Blue positive cells.
(§2) TRYPAN BLUE ASSAYS: Assays are performed on cells in 6 well plates: 300,000 cells are plated in each well of a 6-well plate in 3 ml of medium. After 24 hours, the DMSO vehicle or the indicated compound is added (in 1000th of the vol.) The cells incubated for an additional 24 hours, and then harvested in 0.25 ml of trypsin, followed after harvest by 0.75 ml of medium. The cells are spun down and resuspended in 100-200 μl of medium left that is over the cell pellet (resuspend cells by pipetting up and down a few times). Add 10 μl to 10 μl of trypan blue. Then 10 μl is inserted into the counting slide. After inserting the slide into the Fisher TC20 counting is automatic (these many cells are needed because an accurate ratio of Trypan Blue positive to Trypan Blue negative cells requires about 200 cells in the field the instrument counts).
The Trypan Blue cell death assay was used to evaluate the ability of the active enantiomer of C-105 [(−)-105] to kill ERα positive TDG-Luc cells. For all studies, 300,000 TDG-Luc cells/well in 10% FBS were plated in a 6-well plate in triplicate. 24 hours after plating, the indicated concentrations the active enantiomer of (−)-105, or BHPI (top) ICI, or OHT (Lower left) or (+)-105 (lower right) were added. After 24 hours, the cells were harvested, and the % dead cells was determined by automated Trypan Blue exclusion using the Countess II automated hemocytometer. Percentage of viable cells was calculated by doing 100-(Cell Death %). (n=3±SEM).
TDG cells were incubated for 24 hours with 75 nM of BHPI or 75 nM of each of the indicated test compounds: 4, 6 and (±)-105 (enantiomers not separated). Cell death was determined using the instrument-based Trypan Blue exclusion assay. Structures are in the Synthesis section. […] (n=3±SEM).

TYS cells = test: Trypan Blue exclusion cell death assay, TYS / TYS-Luc; format: cell-based, human; settings: 24 hours
From the text: as §1, §2
The Trypan Blue cell death assay was used to evaluate the ability of the active enantiomer of 105 (−) [(−)-105] to kill ERα positive MCF-7 and TYS-Luc, human breast cancer cells. 300,000 T47D cells/well in 10% FBS were plated in a 6-well plate in triplicate. 24 hours after plating, the indicated concentrations of BHPI, or the active enantiomer 105 (−) of C-105 [(−)-105] was added. After 24 hours, the cells were harvested, and the % dead cells was determined by automated Trypan Blue exclusion using the Countess II automated hemocytometer. Percentage of viable cells was calculated by doing 100-(Cell Death %). (n=3±SEM).
TYS cells were incubated for 24 hours with 35 nM of BHPI or 35 nM of each of the indicated test compounds: 2, 4, and 105. Cell death was determined using the instrument-based Trypan Blue exclusion assay.
TYS cells were incubated for 24 hours with 50 nM of BHPI or 50 nM of each of the indicated test compounds: 4, 6 and 105. Cell death was determined using the instrument-based Trypan Blue exclusion assay. (n=3±SEM).

T47D cells [1] = test: Trypan Blue exclusion cell death assay, T47D / T47D-Luc; format: cell-based, human; settings: 75 nM, 24 hours
From the text: as §1
as §2, with “After inserting the slide into the Fisher TC20 counting is automatic (these many cells are needed because an accurate ratio of Trypan Blue positive to Trypan Blue negative cells requires about 200 cells in the field the instrument counts).” left out
The Trypan Blue cell death assay was used to compare the ability of the active (−) enantiomer of C-105 and BHPI to kill estrogen receptor α (ERα) positive T47D, human breast cancer cells expressing luciferase (T47D-Luc cells). […] After 24 hours, the cells were harvested, and the % dead cells was determined by automated Trypan Blue exclusion using the Countess II automated hemocytometer. Percentage of viable cells was calculated by doing 100-(Cell Death %). […]
T47D cells were incubated for 24 hours with 75 nM of BHPI or 75 nM of each of the indicated test compounds: 4 and 6. Cell death was determined using the instrument-based Trypan Blue exclusion assay. […]
T47D cells were treated for 24 hours with 100 nM BHPI, or with 100 nM of each of the test compounds: 6, 8, and 105. […] Cell death was determined using the instrument-based Trypan Blue exclusion assay. […]

[2] = tested on: ERα Negative MCF-10A cells; test: Trypan Blue exclusion cell death assay, MCF-10A; format: cell-based; settings: 75 nM, 24 hours
From the text: as §1, §2
In FIG. 28, neither the test compounds nor BHPI kill non-tumorigenic ERα Negative MCF-10A breast cells. ERα Negative MCF-10A cells were maintained for 24 hours in DMSO vehicle or 75 nM of BHPI or 75 nM of each of the indicated test compounds: 4, 6 and 105. Cell death was determined using the instrument-based Trypan Blue exclusion assay. (n=3±SEM).

T47D cells [3] = settings: 24 hours; up to 1,000 nM; FACS annexin V-FITC/PI
Procedure: One such change is loss of plasma membrane polarity. This is monitored using Annexin V. Dying cells also take up the dye propidium iodide. Propidium iodide (PI) fluoresces when it is intercalated into DNA. These assays monitor cells at specific stages of cell death.
FLOW CYTOMETRY (FITC) ASSAYS: Cells were seeded in 12-well plates, 75,000 cells/well, and allowed to adhere overnight. The next day, the indicated concentrations of raptinal (positive control), (−)-105, (±)-105, and (+)-105 were added and allowed to incubate at 37° C. for 24 hours (Final Volume: 1 ml, 0.1% DMSO). After incubation, cells were harvested and resuspended in 350 μl of cold Annexin binding buffer (10 mM HEPES, 140 mM NaCl, 2.5 mM CaCl2, pH 7.4) premixed with Annexin V-FITC and PI dyes. Samples were analyzed on a BD Biosciences LSRII flow cytometer, and data analysis was performed using FSC Express Version 5-6. Cell death was assessed relative to a DMSO treated control.
T47D, human breast cancer cells were plated at 75,000 cells/well. The next day, DMSO vehicle, 10 μM raptinal (control for 100% cell death), or 0, 50, 100 500 and 1,000 nM of BHPI or (±)-105, or 1,000 nM ICI/fulvestrant or 1,000 nM OHT was added. After 24 hours viable cells were determined by FACS using annexin V-FITC and propidium iodide dyes. (n=3 independent experiments ±SEM).
75,000 ERα positive T47D, human breast cancer cells, were plated/well. The next day, DMSO vehicle, 10 μM raptinal (control for 100% cell death), or 100 500 and 1,000 nM of (+)-105, or (−)-105 was added. After 24 hours viable cells were determined by FACS using annexin V-FITC and propidium iodide dyes. (n=1).

MCF-7 tumors = test: MCF-7 orthotopic tumor model; format: in vivo, mouse; settings: large established MCF-7 tumors; SERK-F6 10 or 40 mg/kg p.o. daily; fulv. 5 mg/mouse s.c. weekly
Procedure: FIG. 39. SERK-F6 eradicates wild-type ERα tumors via hyperactivation of aUPR. a, MCF-7 orthotopic tumors were established in Nu/J ovariectomized mice supplemented with a 60 day E2 pellet (0.36 mg) and grown to ˜400 mm^3 (28 days to establish), randomized, then treated with vehicle daily (n=3), vehicle weekly (n=3), fulv. weekly (5 mg/mouse, s.c., n=6), SERK-F6 daily (10 or 40 mg/kg p.o.). Vehicle arms were averaged. p values: *: p≤0.05, **: p≤0.01, ***: p≤0.001, ****: p≤0.0001. Tumor images were taken at the end of the study (day 21) and are representative of all tumors (n=6). b-e, MCF-7 cells were orthotopically bi-laterally grafted and tumors were grown until total tumor burden was ˜400 mm^3 prior to daily treatment with vehicle or SERK-F6 (40 mg/kg p.o.). Mice (n=5 per arm) were sacrificed after 3 days (b,c) and 7 days (d,e) and tumors harvested. […] Vinculin (Vin) was used as a loading control. […] Error bars represent S.E.M.
To probe the efficacy of SERK-F6 for killing ERα positive tumors, large MCF-7 tumors were grown and then intervened with therapy. […] The mice were then sacrificed prior to complete tumor eradication.

[4] = tested on: TYS and TDG breast cancer cells; test: Killing of TYS and TDG breast cancer cells by endocrine therapy drugs; format: cell-based, human
OVCAR-3 cells = settings: OVCAR-3 orthotopic xenograft

COc1ccc(C2(c3ccc(O)cc3)C(=O)Nc3c(C)cccc32)cc1 (stereo not shown) [Compound 2, 3-(4-hydroxyphenyl)-3-(4-methoxyphenyl)-7-methylindolin-2-one]
effectiveness in killing compared with BHPI (T47D, TYS and TDG cells): more effective than BHPI

COc1ccc(C2(c3ccc(O)cc3)C(=O)Nc3c(C(F)(F)F)cccc32)cc1 (stereo not shown) [Compound 4, 3-(4-hydroxyphenyl)-3-(4-methoxyphenyl)-7-(trifluoromethyl)indolin-2-one]
ability to kill TDG cells compared to BHPI (TDG cells; 75 nM): greatly increased ability to kill | ability to kill TYS cells compared to BHPI (TYS cells; 35 nM): greatly increased ability to kill | ability to kill TYS cells compared to BHPI (TYS cells; 50 nM): increased ability to kill | ability to kill T47D cells compared to BHPI (T47D cells [1]): greatly increased ability to kill | cell death of MCF-10A cells [2]: neither BHPI nor any of the test compounds induce significant death | effectiveness in killing compared with BHPI (T47D, TYS and TDG cells): more effective than BHPI

Cc1cccc2c1NC(=O)C2(c1ccc(O)cc1)c1ccc(OC(F)(F)F)cc1 (stereo not shown) [Compound 6, 3-(4-hydroxyphenyl)-7-methyl-3-(4-(trifluoromethoxy)phenyl)indolin-2-one]
cell death of MCF-10A cells [2]: neither BHPI nor any of the test compounds induce significant death | effectiveness in killing compared with BHPI (T47D, TYS and TDG cells): more effective than BHPI

CC/C(=C(\c1ccc(O)cc1)c1ccc(OCCN(C)C)cc1)c1ccccc1 [OHT, z-4-hydroxytamoxifen, reference compound]
cytotoxic versus cytostatic phenotype (T47D cells [3]): cytostatic | killing of TDG-Luc cells, dose response (TDG cells): do not kill

C[C@]12CC[C@@H]3c4ccc(O)cc4C[C@@H](CCCCCCCCC[S+]([O-])CCCC(F)(F)C(F)(F)F)[C@H]3[C@@H]1CC[C@@H]2O (stereo partly shown) [fulvestrant, reference compound]
killing of TDG-Luc cells, dose response (TDG cells): do not kill | tumor response (MCF-7 tumors): dramatic effects against these large and established tumors are not obtained | ability to kill TYS and TDG cells [4]: no ability at all to kill

CC(=O)O[C@H]1C(=O)[C@@]2(C)[C@H]([C@H](OC(=O)c3ccccc3)[C@]3(O)C[C@H](OC(=O)[C@H](O)[C@@H](NC(=O)c4ccccc4)c4ccccc4)C(C)=C1C3(C)C)[C@]1(OC(C)=O)CO[C@@H]1C[C@@H]2O [paclitaxel]
tumor growth / detectability (OVCAR-3 cells): ineffective

CC/C(=C(\c1ccccc1)c1ccc(OCCN(C)C)cc1)c1ccccc1 [tamoxifen]
ability to kill TYS and TDG cells [4]: no ability at all to kill
